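Growth conditions: 96-well plates. Treatment: test compound, 48 hours, 5 concentrations. Analysis: linear interpolation between bracketing concentrations; unreached endpoints set to highest concentration. Abbreviation: GI50, concentration required for 50% inhibition of growth.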 The source made the active and inactive calls. Cut-off read from the data, not from the text of the source: active = GI50 up to about 1.1 µM and inactive = higher.

Among the test systems are NCI/ADR-RES; U-251; NCI-H226; T47D; HOP-92; UO-31; HCC 2998; EKVX; NCI-H23; HT-29; 786-0; SF-268; NCI-H522; LOX IMVI; A549; TK-10; PC-3; SK-OV-3; SN12C; Malme-3M.
Common to all, as to assay: growth of human tumour cells (NCI), 48 h

In the case of `Cn1c(-c2ccc[se]2)ccc1-c1ccc(C=O)[se]1`, the GI50 was 2.16 µM (inactive) in the assay with NCI/ADR-RES; 0.0811 µM (active) in the assay on U-251; 0.865 µM (active) with NCI-H226; 0.325 µM (active) in the assay on T47D; 10.5 µM (inactive) in the assay with HOP-92; > 76.4 µM (inactive) with UO-31. Also, the GI50 is 2.47 µM (inactive) in the assay with HCC 2998; 48.5 µM (inactive) with EKVX; 12.4 µM (inactive) with NCI-H23; 10.8 µM (inactive) in the assay on HT-29; 20.9 µM (inactive) in the assay on 786-0; 16.4 µM (inactive) with SF-268. For the same compound, the GI50 in the assay on NCI-H522 is 16.4 µM (inactive); in the assay on LOX IMVI, 8.99 µM (inactive); in the assay on A549, 23.3 µM (inactive); in the assay on TK-10, 0.124 µM (active); in the assay on PC-3, 56.9 µM (inactive); in the assay on SK-OV-3 it was 16.6 µM (inactive). In addition, the GI50 with SN12C is 14.9 µM (inactive).
As for `COc1ccc(NC2=CC(=O)C(=O)c3ccccc32)nn1`, the GI50 with NCI/ADR-RES is 0.514 µM (active); in the assay on U-251, 1.52 µM (inactive); with NCI-H226, 2.31 µM (inactive); with T47D it was 3.4 µM (inactive); in the assay on UO-31, 2.5 µM (inactive); in the assay on HCC 2998 it was 6.68 µM (inactive). Besides, the GI50 in the assay with EKVX was 3.1 µM (inactive); with NCI-H23, 1.91 µM (inactive); with HT-29, 1.64 µM (inactive); in the assay with Malme-3M, 0.661 µM (active); in the assay with 786-0 it was 1.86 µM (inactive); in the assay with SF-268, 1.51 µM (inactive). In addition, the GI50 in the assay on NCI-H522 is 0.492 µM (active); with LOX IMVI, 1.66 µM (inactive); in the assay on A549, 3.1 µM (inactive); in the assay on TK-10 it was 3.56 µM (inactive); with PC-3, 2.73 µM (inactive); in the assay on SK-OV-3, 2.17 µM (inactive). Besides, in the assay with SN12C, the GI50 was 1.6 µM (inactive).
Turning to `CC1=C(C(=O)OC(C)C)C(c2ccccc2[N+](=O)[O-])C(C(=O)OC(CO[N+](=O)[O-])CO[N+](=O)[O-])=C(C)N1` (stereo not given), the GI50 in the assay on NCI/ADR-RES is 3.27 µM (inactive); with U-251, 2.99 µM (inactive); with NCI-H226, 7.16 µM (inactive); in the assay with T47D it was 4.99 µM (inactive); in the assay on UO-31, 3.56 µM (inactive); in the assay on HCC 2998 it was 5.83 µM (inactive). Besides, the GI50 in the assay with EKVX was 2.85 µM (inactive); with NCI-H23, 4.27 µM (inactive); in the assay on HT-29, 2.81 µM (inactive); with Malme-3M, 3.91 µM (inactive); in the assay on 786-0, 3.62 µM (inactive); with SF-268, 2.51 µM (inactive). Besides, the GI50 in the assay with NCI-H522 is 2.42 µM (inactive); in the assay with LOX IMVI it was 2.68 µM (inactive); in the assay on A549 it was 3.09 µM (inactive); in the assay on TK-10, 6.27 µM (inactive); in the assay on PC-3 it was 2.14 µM (inactive); with SK-OV-3, 3.15 µM (inactive). Besides, the GI50 in the assay on SN12C was 3.8 µM (inactive).
As to `CC1(C)C(C(=O)OC(C#N)c2cccc(OCC(=O)OCc3ccccc3)c2)C1(C)C` (stereo not given), the GI50 was 81.5 µM (inactive) in the assay with NCI/ADR-RES; > 100 µM (inactive) with U-251; > 100 µM (inactive) with NCI-H226; 45.8 µM (inactive) with T47D; > 100 µM (inactive) with HOP-92; > 100 µM (inactive) in the assay on UO-31. The GI50 is > 100 µM (inactive) with EKVX; 37.4 µM (inactive) in the assay with NCI-H23; > 100 µM (inactive) with HT-29; > 100 µM (inactive) in the assay with Malme-3M; > 100 µM (inactive) in the assay with 786-0; > 100 µM (inactive) in the assay on SF-268. The GI50 with NCI-H522 was > 100 µM (inactive); in the assay with LOX IMVI, 95.7 µM (inactive); in the assay on A549, > 100 µM (inactive); with TK-10, > 100 µM (inactive); with PC-3 it was > 100 µM (inactive); in the assay with SK-OV-3 it was > 100 µM (inactive). The GI50 with SN12C was > 100 µM (inactive).
Consider `O=c1c2cc(I)ccc2nc(-c2cccs2)n1/N=C/c1ccccc1`, for which the GI50 with NCI/ADR-RES is > 100 µM (inactive); in the assay on U-251 it was > 100 µM (inactive); in the assay on NCI-H226, > 100 µM (inactive); with T47D, 80.5 µM (inactive); in the assay on HOP-92 it was > 100 µM (inactive); with UO-31, > 100 µM (inactive). In addition, the GI50 in the assay on HCC 2998, in the assay with EKVX, in the assay with NCI-H23, in the assay with HT-29, in the assay on 786-0 and in the assay on SF-268 was > 100 µM (inactive) in each case. For the same compound, the GI50 in the assay on NCI-H522, in the assay on LOX IMVI, with A549, with TK-10, with PC-3 and in the assay with SK-OV-3 was > 100 µM (inactive) throughout. Moreover, the GI50 in the assay with SN12C was > 100 µM (inactive).
In the case of `CCCCON1C[C@@H](O)C(O)[C@@H](O)C1` (stereo not given in full), the GI50 in the assay with NCI/ADR-RES, in the assay on U-251, with NCI-H226, with T47D, in the assay with HOP-92 and with UO-31 was > 100 µM (inactive) in each case. In addition, the GI50 with HCC 2998, in the assay on EKVX, in the assay on NCI-H23, in the assay with HT-29, with Malme-3M and in the assay with 786-0 was > 100 µM (inactive) in each case. In addition, the GI50 with SF-268, in the assay on NCI-H522, with LOX IMVI, with A549, with TK-10 and with PC-3 was > 100 µM (inactive) throughout. Besides, the GI50 in the assay with SN12C is > 100 µM (inactive).
Regarding `COc1ccc2c3c([nH]c2c1)CCN(CCCC(=O)c1ccc(F)cc1)C3`, the GI50 is 18.6 µM (inactive) in the assay on NCI/ADR-RES; 17.2 µM (inactive) in the assay on U-251; 16.5 µM (inactive) with NCI-H226; 19 µM (inactive) with T47D; 14 µM (inactive) in the assay with UO-31; 5.53 µM (inactive) with HCC 2998. Besides, the GI50 was 12.8 µM (inactive) with EKVX; 19.4 µM (inactive) in the assay on NCI-H23; 4.91 µM (inactive) in the assay with HT-29; 13.4 µM (inactive) with Malme-3M; 14.1 µM (inactive) in the assay with 786-0; 16.8 µM (inactive) in the assay with SF-268. The GI50 with NCI-H522 was 23.3 µM (inactive); in the assay with LOX IMVI, 12.7 µM (inactive); in the assay on A549, 17.1 µM (inactive); in the assay with TK-10, 15.5 µM (inactive); with PC-3 it was 12.6 µM (inactive); in the assay with SK-OV-3, 19.4 µM (inactive). In the assay on SN12C, the GI50 was 15.9 µM (inactive).
With `COC(=O)CCC12CCC(O1)c1ccccc12` (stereo not given), the GI50 in the assay with NCI/ADR-RES is > 100 µM (inactive); with U-251, > 100 µM (inactive); in the assay on NCI-H226, > 100 µM (inactive); in the assay with T47D, > 100 µM (inactive); with HOP-92 it was 92.5 µM (inactive); in the assay with UO-31 it was > 100 µM (inactive). The GI50 with HCC 2998, in the assay on EKVX, in the assay on NCI-H23, in the assay with HT-29, with 786-0 and in the assay on NCI-H522 was > 100 µM (inactive) in each case. Besides, the GI50 in the assay with LOX IMVI, in the assay on A549, with TK-10, in the assay on PC-3, in the assay with SK-OV-3 and with SN12C was > 100 µM (inactive) throughout.
With `Cc1ccc(O)c(C2=NNC(c3cccc(Cl)c3)C2)c1` (stereo not given), the GI50 with NCI/ADR-RES was 34.5 µM (inactive); in the assay with U-251 it was 33.9 µM (inactive); in the assay with NCI-H226 it was 57.1 µM (inactive); with T47D, 41.4 µM (inactive); with HOP-92, 18.5 µM (inactive); in the assay with UO-31, 28.1 µM (inactive). The GI50 was 37 µM (inactive) in the assay with EKVX; 50.1 µM (inactive) in the assay on NCI-H23; 54.8 µM (inactive) in the assay on HT-29; 37.8 µM (inactive) in the assay with Malme-3M; 72.8 µM (inactive) in the assay on 786-0; 32.9 µM (inactive) with SF-268. For the same compound, the GI50 in the assay on NCI-H522 is 16 µM (inactive); in the assay with LOX IMVI, 31.6 µM (inactive); in the assay on A549 it was 34.8 µM (inactive); in the assay with TK-10 it was 58.3 µM (inactive); in the assay with PC-3, 32.3 µM (inactive); in the assay on SK-OV-3, 35.9 µM (inactive). Besides, the GI50 with SN12C is 37.2 µM (inactive).
For the compound `CC(=O)Nc1c(C)cc2c(nc3n2CCC3OC(C)=O)c1[N+](=O)[O-]` (stereo not given), the GI50 in the assay on NCI/ADR-RES, in the assay on U-251, in the assay on NCI-H226, in the assay on T47D, with HOP-92 and with UO-31 was > 100 µM (inactive) throughout. Besides, the GI50 in the assay with EKVX, in the assay on NCI-H23, in the assay with HT-29, in the assay on Malme-3M, in the assay with 786-0 and with SF-268 was > 100 µM (inactive) in each case. The GI50 in the assay with NCI-H522, in the assay with LOX IMVI, in the assay with A549, in the assay with PC-3, with SK-OV-3 and in the assay with SN12C was > 100 µM (inactive) throughout.
In the case of `CC1(C)CC(=O)C2=C(C1)c1c(ccc3ccccc13)NC2c1cn(Cc2ccc(Cl)cc2)c2ccccc12` (stereo not given), the GI50 in the assay on NCI/ADR-RES is 52.6 µM (inactive); in the assay on U-251 it was 56.8 µM (inactive); in the assay on T47D, 7.19 µM (inactive); in the assay with HOP-92, 27.7 µM (inactive); in the assay on UO-31, > 100 µM (inactive); in the assay on EKVX, 30.7 µM (inactive). The GI50 with NCI-H23 is 80.7 µM (inactive); with HT-29, > 100 µM (inactive); in the assay on 786-0 it was > 100 µM (inactive); in the assay on SF-268, > 100 µM (inactive); in the assay with NCI-H522, 66.8 µM (inactive); in the assay with LOX IMVI it was 38.7 µM (inactive). The GI50 was > 100 µM (inactive) in the assay on A549; 27.7 µM (inactive) with TK-10; > 100 µM (inactive) in the assay with PC-3; > 100 µM (inactive) with SK-OV-3; > 100 µM (inactive) in the assay on SN12C.

These data come from ChEMBL document CHEMBL1201862, “PubChem BioAssay data set” (2004).
